According to patent publication US4670461A, “Formaldehyde derivatives of mitindomide” (priority 1984, dated 1987):
Structures can show the parent of a compound that is named as a salt.

Tests used:
L1210 leukemia [1] = experiment: S.C. implanted L1210 leukemia in mice (CD2F1); assay type: in vivo
From the text: ^a Experimental formulation of mitindomide was used (NaOH + manitol).

Water solubility = assay type: physicochemical; settings: water
L1210 leukemia [2] = experiment: IP implanted L1210 leukemia in mice (CD2F1); assay type: in vivo
P388 = experiment: IP P388, Days 1-9 (NCI murine test system); assay type: in vivo; settings: IP P388, Days 1-9, dose 68.8
Procedure: Anti-tumor or anti-neoplastic activity of the novel derivatives of the present invention is determined by using the murine test system for screening anti-cancer compounds as standardized by the National Cancer Institute, Bethesda, Md., U.S.A., and described in Cancer Chemotherapy Reports, 3 (2) 1-103 (1972) which publication is incorporated herein by reference.
It is noted that although the intraperitoneal mode of administration of the novel derivatives is preferred, other modes of parenteral administration, e.g. subcutaneous, intravenous, etc., are, of course, possible and included within the purview of this invention. Similarly, although water has been used as a vehicle for the administration of the compounds of the present invention, other pharmaceutically acceptable vehicles, e.g. saline, buffers, and other aqueous media may also be used for the administration of these compounds together with adjuvants, agents or additives commonly employed in the preparation of pharmaceutical compositions. Examples of such agents, additives and adjuvants that may be employed are listed in Instruction 14, Screening Data Summary Interpretation and Outline of Clinical Screen. Drug Evaluation Branch, NCI. and are incorporated herein by reference.

[3] = 24.8 mg/kg ip days 1-9, Expt. 1
[4] = 24.8 mg/kg ip days 1-9, Expt. 2
[5] = 41.3 mg/kg ip days 1-9, Expt. 1
[6] = 41.3 mg/kg ip days 1-9, Expt. 2
[7] = 68.8 mg/kg ip days 1-9, Expt. 1
[8] = 68.8 mg/kg ip days 1-9, Expt. 2
[9] = 114.7 mg/kg ip days 1-9, Expt. 1
[10] = 24.8 mg/kg IP days 1-9, Expt. 1
[11] = 24.8 mg/kg IP days 1-9, Expt. 2
[12] = 24.8 mg/kg IP days 1-9, Expt. 3
[13] = 41.3 mg/kg IP days 1-9, Expt. 1
[14] = 41.3 mg/kg IP days 1-9, Expt. 2
[15] = 41.3 mg/kg IP days 1-9, Expt. 3
[16] = 68.8 mg/kg IP days 1-9, Expt. 1
[17] = 68.8 mg/kg IP days 1-9, Expt. 2
[18] = 68.8 mg/kg IP days 1-9, Expt. 3
[19] = 114.7 mg/kg IP days 1-9, Expt. 1
[20] = 114.7 mg/kg IP days 1-9, Expt. 2
[21] = 114.7 mg/kg IP days 1-9, Expt. 3

CN1CCN(CN2C(=O)C3C4C=CC(C3C2=O)C2C3C(=O)N(CN5CCN(C)CC5)C(=O)C3C42)CC1 (centres unmarked) [Example 4, 4,8-Ethenopyrrolo[3',4':3,4]cyclobut[1,2-f]isoindole-1,3,5,7(2H,6H)-tetrone,3a,3b,4,4a,7a,8,8a,8b-octahydro-2,6-bis(N-methylpiperazinomethyl)di-hydrochloride]
ILS (L1210 leukemia [1]; [3]): 18%
MST (L1210 leukemia [1]; [3]): 9.7 days
Wt. Change (L1210 leukemia [1]; [3]): -0.2 g
ILS (L1210 leukemia [1]; [4]): 12%
MST (L1210 leukemia [1]; [4]): 12.0 days
Wt. Change (L1210 leukemia [1]; [4]): 0.3 g
ILS (L1210 leukemia [1]; [5]): 50%
MST (L1210 leukemia [1]; [5]): 12.3 days
Wt. Change (L1210 leukemia [1]; [5]): -1.6 g
ILS (L1210 leukemia [1]; [6]): 21%
MST (L1210 leukemia [1]; [6]): 13.0 days
Wt. Change (L1210 leukemia [1]; [6]): -1.5 g
ILS (L1210 leukemia [1]; [7]): 74%
MST (L1210 leukemia [1]; [7]): 14.3 days
Wt. Change (L1210 leukemia [1]; [7]): -4.2 g
ILS (L1210 leukemia [1]; [8]): 58%
MST (L1210 leukemia [1]; [8]): 17.0 days
Wt. Change (L1210 leukemia [1]; [8]): -2.9 g
ILS (L1210 leukemia [1]; [9]): 135%
MST (L1210 leukemia [1]; [9]): 19.3 days
Wt. Change (L1210 leukemia [1]; [9]): -4.7 g
Wt. Change (L1210 leukemia [1]; 114.7 mg/kg ip days 1-9, Expt. 2): -4.0 g
Wt. Change (L1210 leukemia [1]; 191.2 mg/kg ip days 1-9, Expt. 2): -6.6 g
H2O Sol. % (g per 100 ml H2O) (Water solubility): 10 % (g per 100 ml H2O)
ILS (L1210 leukemia [2]; [10]): 2%
MST (L1210 leukemia [2]; [10]): 8.9 days
Wt. Change (L1210 leukemia [2]; [10]): 2.5 g
ILS (L1210 leukemia [2]; [11]): 5%
MST (L1210 leukemia [2]; [11]): 8.4 days
Wt. Change (L1210 leukemia [2]; [11]): 0.8 g
ILS (L1210 leukemia [2]; [12]): 9%
MST (L1210 leukemia [2]; [12]): 9.0 days
Wt. Change (L1210 leukemia [2]; [12]): 0.3 g
ILS (L1210 leukemia [2]; [13]): 24%
MST (L1210 leukemia [2]; [13]): 10.8 days
Wt. Change (L1210 leukemia [2]; [13]): 1.4 g
ILS (L1210 leukemia [2]; [14]): 47%
MST (L1210 leukemia [2]; [14]): 11.8 days
Wt. Change (L1210 leukemia [2]; [14]): -2.6 g
ILS (L1210 leukemia [2]; [15]): 34%
MST (L1210 leukemia [2]; [15]): 11.0 days
Wt. Change (L1210 leukemia [2]; [15]): -1.5 g
ILS (L1210 leukemia [2]; [16]): 83%
MST (L1210 leukemia [2]; [16]): 16.0 days
Wt. Change (L1210 leukemia [2]; [16]): -1.7 g
ILS (L1210 leukemia [2]; [17]): 78%
MST (L1210 leukemia [2]; [17]): 14.3 days
Wt. Change (L1210 leukemia [2]; [17]): -4.1 g
ILS (L1210 leukemia [2]; [18]): 119%
MST (L1210 leukemia [2]; [18]): 18.0 days
Wt. Change (L1210 leukemia [2]; [18]): -3.2 g
ILS (L1210 leukemia [2]; [19]): 3%
MST (L1210 leukemia [2]; [19]): 9.0 days
Wt. Change (L1210 leukemia [2]; [19]): -2.6 g
ILS (L1210 leukemia [2]; [20]): 110%
MST (L1210 leukemia [2]; [20]): 16.8 days
Wt. Change (L1210 leukemia [2]; [20]): -5.3 g
ILS (L1210 leukemia [2]; [21]): 143%
MST (L1210 leukemia [2]; [21]): 20.0 days
Wt. Change (L1210 leukemia [2]; [21]): -4.6 g
Wt. Change (L1210 leukemia [2]; 191.2 mg/kg IP days 1-9, Expt. 3): -7.1 g
T/C (P388): 172
